# According to the NIST ThermoML archive (doi:10.1021/je100598x):
# Numbers after ± are expanded uncertainties.
# Test: cn = amount concentration of the nth substance listed, in mol/dm3
# Settings: 101 kPa, Liquid, Direct current cell with electrodes
structure (smiles),measurement,setting,value
CCCCCCCCCCCC[N+](C)(C)C.[Br-] [dodecyltrimethylammonium bromide] + O,electrical conductivity,"303.15 K, c1 = 0.01936",0.166 ± 0.0017 S/m
same,electrical conductivity,"303.15 K, c1 = 0.02021",0.168 ± 0.0017 S/m
same,electrical conductivity,"303.15 K, c1 = 0.02105",0.17 ± 0.0017 S/m
same,electrical conductivity,"303.15 K, c1 = 0.02188",0.172 ± 0.0017 S/m
same,electrical conductivity,"303.15 K, c1 = 0.02268",0.1741 ± 0.0017 S/m
same,electrical conductivity,"303.15 K, c1 = 0.02347",0.176 ± 0.0018 S/m
same,electrical conductivity,"303.15 K, c1 = 0.02424",0.178 ± 0.0018 S/m
same,electrical conductivity,"303.15 K, c1 = 0.025",0.1805 ± 0.0018 S/m
same,electrical conductivity,"303.15 K, c1 = 0.02611",0.1831 ± 0.0018 S/m
same,electrical conductivity,"303.15 K, c1 = 0.02718",0.186 ± 0.0019 S/m
same,electrical conductivity,"303.15 K, c1 = 0.02823",0.189 ± 0.0019 S/m
same,electrical conductivity,"303.15 K, c1 = 0.02925",0.1912 ± 0.0019 S/m
same,electrical conductivity,"303.15 K, c1 = 0.03023",0.1937 ± 0.0019 S/m
same,electrical conductivity,"308.15 K, c1 = 0.001961",0.0238 ± 0.0002 S/m
same,electrical conductivity,"308.15 K, c1 = 0.003846",0.045 ± 0.0005 S/m
same,electrical conductivity,"308.15 K, c1 = 0.00566",0.0647 ± 0.0006 S/m
same,electrical conductivity,"308.15 K, c1 = 0.007407",0.0833 ± 0.0008 S/m
same,electrical conductivity,"308.15 K, c1 = 0.009091",0.1007 ± 0.001 S/m
same,electrical conductivity,"308.15 K, c1 = 0.01071",0.117 ± 0.0012 S/m
same,electrical conductivity,"308.15 K, c1 = 0.01228",0.1328 ± 0.0013 S/m
same,electrical conductivity,"308.15 K, c1 = 0.01379",0.148 ± 0.0015 S/m
same,electrical conductivity,"308.15 K, c1 = 0.01525",0.162 ± 0.0016 S/m
same,electrical conductivity,"308.15 K, c1 = 0.01667",0.1727 ± 0.0017 S/m
same,electrical conductivity,"308.15 K, c1 = 0.01758",0.177 ± 0.0018 S/m
same,electrical conductivity,"308.15 K, c1 = 0.01848",0.1807 ± 0.0018 S/m
same,electrical conductivity,"308.15 K, c1 = 0.01936",0.1837 ± 0.0018 S/m
same,electrical conductivity,"308.15 K, c1 = 0.02021",0.187 ± 0.0019 S/m
same,electrical conductivity,"308.15 K, c1 = 0.02105",0.19 ± 0.0019 S/m
same,electrical conductivity,"308.15 K, c1 = 0.02188",0.1922 ± 0.0019 S/m
same,electrical conductivity,"308.15 K, c1 = 0.02268",0.195 ± 0.002 S/m
same,electrical conductivity,"308.15 K, c1 = 0.02347",0.198 ± 0.002 S/m
same,electrical conductivity,"308.15 K, c1 = 0.02424",0.2 ± 0.002 S/m
same,electrical conductivity,"308.15 K, c1 = 0.025",0.203 ± 0.002 S/m
same,electrical conductivity,"308.15 K, c1 = 0.02611",0.206 ± 0.0021 S/m
same,electrical conductivity,"308.15 K, c1 = 0.02718",0.21 ± 0.0021 S/m
same,electrical conductivity,"308.15 K, c1 = 0.02823",0.213 ± 0.0021 S/m
same,electrical conductivity,"308.15 K, c1 = 0.02925",0.217 ± 0.0022 S/m
same,electrical conductivity,"308.15 K, c1 = 0.03023",0.22 ± 0.0022 S/m
same,electrical conductivity,"313.15 K, c1 = 0.001961",0.0261 ± 0.0003 S/m
same,electrical conductivity,"313.15 K, c1 = 0.003846",0.0494 ± 0.0005 S/m
same,electrical conductivity,"313.15 K, c1 = 0.00566",0.0711 ± 0.0007 S/m
same,electrical conductivity,"313.15 K, c1 = 0.007407",0.0914 ± 0.0009 S/m
same,electrical conductivity,"313.15 K, c1 = 0.009091",0.1109 ± 0.0011 S/m
same,electrical conductivity,"313.15 K, c1 = 0.01071",0.129 ± 0.0013 S/m
same,electrical conductivity,"313.15 K, c1 = 0.01228",0.146 ± 0.0015 S/m
same,electrical conductivity,"313.15 K, c1 = 0.01379",0.1623 ± 0.0016 S/m
same,electrical conductivity,"313.15 K, c1 = 0.01525",0.178 ± 0.0018 S/m
same,electrical conductivity,"313.15 K, c1 = 0.01667",0.1907 ± 0.0019 S/m
same,electrical conductivity,"313.15 K, c1 = 0.01758",0.197 ± 0.002 S/m
same,electrical conductivity,"313.15 K, c1 = 0.01848",0.201 ± 0.002 S/m
same,electrical conductivity,"313.15 K, c1 = 0.01936",0.205 ± 0.0021 S/m
same,electrical conductivity,"313.15 K, c1 = 0.02021",0.209 ± 0.0021 S/m
same,electrical conductivity,"313.15 K, c1 = 0.02105",0.212 ± 0.0021 S/m
same,electrical conductivity,"313.15 K, c1 = 0.02188",0.215 ± 0.0022 S/m
same,electrical conductivity,"313.15 K, c1 = 0.02268",0.218 ± 0.0022 S/m
same,electrical conductivity,"313.15 K, c1 = 0.02347",0.22 ± 0.0022 S/m
same,electrical conductivity,"313.15 K, c1 = 0.02424",0.223 ± 0.0022 S/m
same,electrical conductivity,"313.15 K, c1 = 0.025",0.226 ± 0.0023 S/m
same,electrical conductivity,"313.15 K, c1 = 0.02611",0.23 ± 0.0023 S/m
same,electrical conductivity,"313.15 K, c1 = 0.02718",0.234 ± 0.0023 S/m
same,electrical conductivity,"313.15 K, c1 = 0.02823",0.238 ± 0.0024 S/m
same,electrical conductivity,"313.15 K, c1 = 0.02925",0.242 ± 0.0024 S/m
same,electrical conductivity,"313.15 K, c1 = 0.03023",0.246 ± 0.0025 S/m
same,electrical conductivity,"318.15 K, c1 = 0.001961",0.0279 ± 0.0003 S/m
same,electrical conductivity,"318.15 K, c1 = 0.003846",0.0531 ± 0.0005 S/m
same,electrical conductivity,"318.15 K, c1 = 0.00566",0.076 ± 0.0008 S/m
same,electrical conductivity,"318.15 K, c1 = 0.007407",0.0969 ± 0.001 S/m
same,electrical conductivity,"318.15 K, c1 = 0.009091",0.119 ± 0.0012 S/m
same,electrical conductivity,"318.15 K, c1 = 0.01071",0.139 ± 0.0014 S/m
same,electrical conductivity,"318.15 K, c1 = 0.01228",0.158 ± 0.0016 S/m
same,electrical conductivity,"318.15 K, c1 = 0.01379",0.175 ± 0.0018 S/m
same,electrical conductivity,"318.15 K, c1 = 0.01525",0.1919 ± 0.0019 S/m
same,electrical conductivity,"318.15 K, c1 = 0.01667",0.206 ± 0.0021 S/m
same,electrical conductivity,"318.15 K, c1 = 0.01758",0.215 ± 0.0022 S/m
same,electrical conductivity,"318.15 K, c1 = 0.01848",0.222 ± 0.0022 S/m
same,electrical conductivity,"318.15 K, c1 = 0.01936",0.226 ± 0.0023 S/m
same,electrical conductivity,"318.15 K, c1 = 0.02021",0.23 ± 0.0023 S/m
same,electrical conductivity,"318.15 K, c1 = 0.02105",0.234 ± 0.0023 S/m
same,electrical conductivity,"318.15 K, c1 = 0.02188",0.238 ± 0.0024 S/m
same,electrical conductivity,"318.15 K, c1 = 0.02268",0.242 ± 0.0024 S/m
same,electrical conductivity,"318.15 K, c1 = 0.02347",0.246 ± 0.0025 S/m
same,electrical conductivity,"318.15 K, c1 = 0.02424",0.249 ± 0.0025 S/m
same,electrical conductivity,"318.15 K, c1 = 0.025",0.252 ± 0.0025 S/m
same,electrical conductivity,"318.15 K, c1 = 0.02611",0.258 ± 0.0026 S/m
same,electrical conductivity,"318.15 K, c1 = 0.02718",0.263 ± 0.0026 S/m
same,electrical conductivity,"318.15 K, c1 = 0.02823",0.268 ± 0.0027 S/m
same,electrical conductivity,"318.15 K, c1 = 0.02925",0.272 ± 0.0027 S/m
same,electrical conductivity,"318.15 K, c1 = 0.03023",0.277 ± 0.0028 S/m
